Consider one compound from publication PMC11617665, “Virtual and in Vitro Screening Employing a Repurposing Approach Reveal 13‐cis‐Retinoic Acid is a PTP1B Inhibitor” (Chemmedchem, 2024).

Each structure is given as a SMILES string.

Details of data set [1]: method as in PMID 11375780. Particulars: cited from earlier work.
Details of data set [2]: method as in PMID 19961047. Particulars: ingestion during pregnancy or shortly before conception; cited from earlier work.
The target of data set [3] is T1, PTP1B (Homo sapiens, UniProt P18031).
T1 sequence (P18031 1-435): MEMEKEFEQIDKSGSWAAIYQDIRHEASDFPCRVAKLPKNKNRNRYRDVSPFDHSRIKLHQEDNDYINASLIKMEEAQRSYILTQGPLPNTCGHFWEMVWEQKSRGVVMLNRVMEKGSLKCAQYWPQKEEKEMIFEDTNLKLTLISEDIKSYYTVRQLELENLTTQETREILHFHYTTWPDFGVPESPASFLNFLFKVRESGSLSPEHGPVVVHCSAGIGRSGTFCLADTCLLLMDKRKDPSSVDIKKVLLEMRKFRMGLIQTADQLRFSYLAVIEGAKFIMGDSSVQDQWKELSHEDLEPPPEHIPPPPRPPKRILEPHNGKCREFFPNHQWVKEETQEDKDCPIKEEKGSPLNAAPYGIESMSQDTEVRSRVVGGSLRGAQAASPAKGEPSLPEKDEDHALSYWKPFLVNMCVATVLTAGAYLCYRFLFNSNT
Description: In vitro spectrophotometric PTP1B inhibition assay (pNPP substrate). The format is biochemical. As to the method: The spectrophotometric method previously described was used.[39] The compounds and the positive control were dissolved in dimethylsulfoxide (DMSO). Aliquots of 0–10 μL solution of the compounds to be tested (in triplicate) were incubated with 85 μL of the enzyme (66 nM) in Tris [50 mM; Tris‐HCI Buffer, pH 6.8] and 5 microliters of the substrate (pNPP, 10 mM), for 15 min at 37 °C. After incubation, the absorbance was determined. The inhibitory activity for the compounds was determined as a percentage compared to the blank (Tris) according to the following equation: (1) %PTP1B=1-A415t/A415cX100%
Where %PTP1B is the percentage inhibition, A415t is the corrected absorbance of the tested compound (A415 final‐A415 initial), and A415c is the corrected absorbance of the blank (A415 final blank‐A415 initial target). The IC50 was calculated by regression analysis using the following equation: (2) %Inhibition=A100/1+I/CI50^s

The target of data set [4] is T1, PTP1B. Briefly: Enzyme kinetics studies, type of inhibition (Lineweaver-Burk). As to conditions: for type of inhibition: Lineweaver-Burk plot.
Description: The assay was carried out with different concentrations of inhibitor (0, 0.005, 0.040 and 0.060 mM) and substrate (0.10, 0.20, 0.30, 0.40, and 0.50 mM). Kinetic parameters (Vmax, Km, and Ki) were obtained by nonlinear regression fit analysis using Origin 2018 software.

On to `CC1=C(/C=C/C(C)=C/C=C/C(C)=C\C(=O)O)C(C)(C)CCC1` [3a, 13‐cis‐retinoic acid], for which the DE50 for humans in data set [1] was 0.4 mg/kg. The teratogenic effect result in data set [2] is “teratogen”. Besides, the IC50 (as a rule, the concentration needed to halve the response being measured) on PTP1B [3] (PTP1B 66 nM, pNPP, Tris pH 6.8, 15 min at 37 °C) is 44 µM. Moreover, the “inhibitory activity against PTP1B” value on PTP1B [3] (compounds evaluated at 2 mM) is “significant inhibitory activity”. For the same compound, at PTP1B [4], affinity was put at a Ki of 23.4 ± 2 µM. Further, the type of inhibition result on PTP1B [4] was “competitive inhibition”; on PTP1B [4] (listed as 13‐cis‐retinoic acid) it was “competitive PTP1B inhibitor”.
